Where a name gives a salt, the structure may show the parent alone. Read-outs that look alike come from different tables or passages of the source.
Tests used:
IMP-1 = IMP-1 (Serratia marcescens, UniProt P52699); test: biochemical; format: biochemical; settings: read-out: IMP-1 IC50
NDM-1 = NDM-1 (Klebsiella pneumoniae, UniProt C7C422); test: biochemical; format: biochemical; settings: read-out: NDM-1 IC50
[1] = test system: Serratia marcescens expressing IMP-1 (CL5741); test: Antibiotic potentiation activity: synergistic concentration (MITC95) with imipenem, OD600 growth; format: cell-based; settings: for Serratia marcescens expressing IMP-1 (CL5741) MITC95: concentration giving 95% inhibition of bacterial growth; for Serratia marcescens MITC95: Serratia marcescens expressing IMP-1 (CL5741), 95% growth inhibition
How it was run: (§1)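 Absorbance after a 22–24 h, 35 °C incubation served as the read-out. Wells held bacteria (saline suspension diluted 1:100 into 1.1× CAMHB), imipenem at 4 μg/ml final or optionally 1 μg/ml, and test compound.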

[2] = test system: Escherichia coli expressing NDM-1 (CLB30016); test: as above; format: cell-based; settings: for Escherichia coli expressing NDM-1 (CLB 30016) MITC95: concentration giving 95% inhibition of bacterial growth; for Escherichia coli MITC95: Escherichia coli expressing NDM-1 (CLB30016), 95% growth inhibition
How it was run: as §1

[3] = test system: Escherichia coli expressing NDM-1 (CLB30005); test: as above; format: cell-based; settings: for Escherichia coli expressing NDM-1 (CLB 30005) MITC95: concentration giving 95% inhibition of bacterial growth; for Escherichia coli MITC95: Escherichia coli expressing NDM-1 (CLB30005), 95% growth inhibition
How it was run: as §1

[4] = test system: Klebsiella pneumoniae expressing VIM-1 (IHMA599644); test: as above; format: cell-based; settings: for Klebsiella pneumoniae expressing VIM-1 (IHMA 599644) MITC95: concentration giving 95% inhibition of bacterial growth; for Klebsiella pneumoniae MITC95: Klebsiella pneumoniae expressing VIM-1 (IHMA599644), 95% growth inhibition
How it was run: as §1

VIM-1 = VIM-1 (Pseudomonas aeruginosa (strain ATCC 15692 / DSM 22644 / CIP 104116 / JCM 14847 / LMG 12228 / 1C / PRS 101 / PAO1), UniProt A0A0F7KYQ8); test: Enzyme activity: determination of IC50, fluorescence assay with CCF2-FA substrate (VIM-1); format: biochemical
[5] = fluorescence assay with CCF2-FA substrate
[6] = fluorescence assay with CCF2-FA substrate, read-out: VIM-1 IC50
[7] = IMP-1 enzyme, CCF2-FA fluorescence assay
[8] = NDM-1 enzyme, CCF2-FA fluorescence assay
[9] = VIM-1 enzyme, CCF2-FA fluorescence assay, read-out: VIM-1 IC50

NDM-1, sequence (C7C422 whole entry, looked up, species assumed): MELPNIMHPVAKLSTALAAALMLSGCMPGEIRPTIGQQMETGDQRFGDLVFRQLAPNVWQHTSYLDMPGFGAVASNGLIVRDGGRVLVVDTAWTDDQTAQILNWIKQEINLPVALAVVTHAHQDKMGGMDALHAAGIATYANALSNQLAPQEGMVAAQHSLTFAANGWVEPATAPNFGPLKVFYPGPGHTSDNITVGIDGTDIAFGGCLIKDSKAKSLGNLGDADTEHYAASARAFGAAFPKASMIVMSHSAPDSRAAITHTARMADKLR
IMP-1, sequence (P52699 whole entry, looked up): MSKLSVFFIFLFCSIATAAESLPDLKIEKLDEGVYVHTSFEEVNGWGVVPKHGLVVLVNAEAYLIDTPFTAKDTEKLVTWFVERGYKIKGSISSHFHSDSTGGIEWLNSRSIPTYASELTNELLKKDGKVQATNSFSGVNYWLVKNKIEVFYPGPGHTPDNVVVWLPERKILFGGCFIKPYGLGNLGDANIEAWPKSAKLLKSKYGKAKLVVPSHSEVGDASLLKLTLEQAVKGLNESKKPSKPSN

Row | SMILES | IC50 (IMP-1; [5]) | IC50 (NDM-1; [5]) | Serratia marcescens expressing IMP-1 (CL5741) MITC95 [1] | Escherichia coli expressing NDM-1 (CLB 30016) MITC95 [2] | Escherichia coli expressing NDM-1 (CLB 30005) MITC95 [3] | Klebsiella pneumoniae expressing VIM-1 (IHMA 599644) MITC95 [4] | IC50 (VIM-1; [6]) | IC50 (IMP-1; [7]) | IC50 (NDM-1; [8]) | Serratia marcescens MITC95 [1] | Escherichia coli MITC95 [2] | Escherichia coli MITC95 [3] | Klebsiella pneumoniae MITC95 [4] | IC50 (VIM-1; [9]) | IC50 (VIM-1; VIM-1 IC50, VIM-1 enzyme, CCF2-FA fluorescence assay)
1 | CC(=O)Nc1ccc(-c2ccnc(S(N)(=O)=O)c2-c2nn[nH]n2)cc1 [Example 214, N-(4-(2-sulfamoyl-3-(2H-tetrazol-5-yl)pyridin-4-yl)phenyl)acetamide] | 98.4 nM | 13.2 nM | 3.344 µM | 0.375 µM | 0.1953 µM | 37.5 µM | 129 nM | – | – | – | – | – | – | – | –
2 | Nc1ccc(-c2ccnc(S(N)(=O)=O)c2-c2nn[nH]n2)cn1 [Example 215, 6-amino-3′-(2H-tetrazol-5-yl)-[3,4′-bipyridine]-2′-sulfonamide] | 1860 nM | 90.9 nM | 18.75 µM | 0.25 µM | 0.1953 µM | 12.5 µM | 494 nM | – | – | – | – | – | – | – | –
3 | Nc1ccc(-c2cccc(S(N)(=O)=O)c2-c2nnn[nH]2)cn1 [Example 298, 3-(6-Aminopyridin-3-yl)-2-(1H-tetrazol-5-yl)benzene sulfonamide, TFA salt] | – | – | – | – | – | – | – | 776 nM | 71.7 nM | 8.333 µM | 0.04688 µM | 0.1953 µM | 12.5 µM | 251 nM | –
4 | NS(=O)(=O)c1cccc(-c2cnc3cc[nH]c3c2)c1-c1nn[nH]n1 [Example 310, 3-(1H-pyrrolo[3,2-b]pyridin-6-yl)-2-(2H-tetrazol-5-yl)benzenesulfonamide] | – | – | – | – | – | – | – | 420 nM | 0.994 nM | 9.375 µM | 0.02344 µM | 0.1953 µM | 4.167 µM | 46 nM | –
5 | NS(=O)(=O)c1cccc(-c2cnc3ccoc3c2)c1-c1nn[nH]n1 [Example 311, 3-(furo[3,2-b]pyridin-6-yl)-2-(2H-tetrazol-5-yl)benzenesulfonamide] | – | – | – | – | – | – | – | 129 nM | 1.11 nM | 3.906 µM | 0.7813 µM | 0.1953 µM | 4.688 µM | 8.16 nM | –
6 | NS(=O)(=O)c1cccc(-c2cnc3[nH]ccc3c2)c1-c1nn[nH]n1 [Example 312, 3-(1H-pyrrolo[2,3-b]pyridin-5-yl)-2-(2H-tetrazol-5-yl)benzenesulfonamide] | – | – | – | – | – | – | – | 107 nM | 0.95 nM | 5.469 µM | 0.5859 µM | 0.3906 µM | 3.125 µM | 6.5 nM | –
7 | NS(=O)(=O)c1cccc(-c2ccc3[nH]ncc3c2)c1-c1nn[nH]n1 [Example 313, 3-(1H-indazol-5-yl)-2-(2H-tetrazol-5-yl)benzenesulfonamide] | – | – | – | – | – | – | – | 66.9 nM | 0.77 nM | 3.906 µM | 0.5859 µM | 0.4635 µM | 7.031 µM | 13.4 nM | –
8 | Cc1ccncc1-c1cccc(S(N)(=O)=O)c1-c1nn[nH]n1 [Example 317, 3-(4-methylpyridin-3-yl)-2-(2H-tetrazol-5-yl)benzenesulfonamide] | – | – | – | – | – | – | – | 360 nM | 5.38 nM | 9.375 µM | 0.1875 µM | 0.125 µM | 18.75 µM | – | 46 nM
9 | NS(=O)(=O)c1cccc(-c2ccc3nccn3c2)c1-c1nn[nH]n1 [Example 318, 3-(imidazo[1,2-a]pyridin-6-yl)-2-(2H-tetrazol-5-yl)benzenesulfonamide] | – | – | – | – | – | – | – | 295 nM | 2.13 nM | 6.25 µM | 0.0625 µM | 0.1953 µM | 4.688 µM | 24.6 nM | –
10 | NS(=O)(=O)c1cccc(-c2ccnc3ccccc23)c1-c1nn[nH]n1 [Example 319, 3-(quinolin-4-yl)-2-(2H-tetrazol-5-yl)benzenesulfonamide] | – | – | – | – | – | – | – | 62.2 nM | 0.551 nM | 3.906 µM | 3.906 µM | 0.3906 µM | 3.906 µM | 0.886 nM | –
